Measurements reported in publication PMC10974290, “Biocatalytic Synthesis of Coumarin S-Glycosides: Towards Non-Cytotoxic Probes for Biomedical Imaging and Sensing” (Molecules, 2024).
Marks after values point to notes of the source that are not given here.

How the values were obtained:
A-549 (lung carcinoma) = assay: MTT cell proliferation assay, A-549; type: cell-based, human; conditions: Homo sapiens, A549, 72 h, 72 h incubation, 95% confidence interval in parentheses
Experimental: (§1) To use these S-glycosidic compounds in cellulo, the potential impact of the glycosidic linkage nature on the anticancer activity was assessed. The S-glycoside derivatives and the 7-MC were tested against four human cancer cell lines and a healthy one, namely A549 (lung carcinoma), HS-683 (glioma cancer), MCF-7 (breast adenocarcinoma), SK-MEL-28 (melanoma skin cancer), and HaCaT (keratinocyte normal skin), using MTT (thiazolyl blue tetrazolium bromide, Sigma-Aldrich, St. Louis, MO, USA) assay, as previously described in the literature.
Cell proliferation of five distinct cell lines was evaluated using the colorimetric MTT (thiazolyl blue tetrazolium bromide, Sigma) assay. Human keratinocyte normal skin HaCaT was cultivated in DMEM supplemented with 4.5 g/L glucose, 2 mM L-glutamine, and 10% FBS. Cancer cell lines and their respective growth media were obtained from CLS Cell Line Service GmbH (Eppelheim, Germany). Specifically, human skin melanoma SK-MEL-28 and human brain glioma HS683 were cultivated in DMEM with identical supplements as HaCaT cells. The human lung carcinoma cell line A-549 was grown in DMEM/Ham’s F12 (1:1) medium supplemented with 2 mM L-glutamine and 5% FBS. Additionally, human breast adenoma carcinoma MCF-7 cells were sustained in EMEM supplemented with 2 mM L-glutamine, sodium pyruvate, non-essential amino acids (NEAAs), 10 µg/mL insulin human, and 10% FBS. The MTT assay relies on the reduction of the yellow product thiazolyl blue tetrazolium bromide (MTT) to formazan, a purple-blue product, by mitochondrial dehydrogenases in metabolically active cells. The number of living cells after incubation in the presence (or absence, control) of the tested molecules is directly proportional to the blue color, which was measured by spectrophotometry. To perform the assay, cells were initially seeded at a density of 2500 cells/mL in 96-well culture plates (Nunc™ Edge 2.0, Fisher) and allowed to adhere and proliferate over a 24-hour incubation period. Following this, the cells were treated with various concentrations of the tested compounds, which were previously prepared as serial dilutions and dissolved in 0.1% DMSO. […] Each concentration of the tested compounds underwent triplicate testing (n = 3), and cells were subsequently incubated for 72 h to allow for thorough evaluation. Following this incubation period, MTT reagent (5 mg/mL solution in PBS) was introduced to each well (10% v/v), and cells were further incubated for 4 h. Then, the culture medium was carefully removed, and the resulting blue formazan crystals were dissolved in 100 µL of 100% DMSO. Absorbance readings were taken at 540 nm, referencing a wavelength of 620 nm, using a spectrophotometer. In determining the IC50, the absorbance of serial dilutions of each cell line, treated under identical conditions but without the presence of the tested compounds, was measured.

HS683 (brain glioma) = assay: MTT cell proliferation assay, HS683; type: cell-based; conditions: Homo sapiens, Hs 683, 72 h incubation, 95% confidence interval in parentheses
Experimental: as §1, with “literature. The selected reference drugs were 5-fluorouracil (5-FU) and etoposide.” for “literature.”
(§2) Cell proliferation of five distinct cell lines was evaluated using the colorimetric MTT (thiazolyl blue tetrazolium bromide, Sigma) assay. Human keratinocyte normal skin HaCaT was cultivated in DMEM supplemented with 4.5 g/L glucose, 2 mM L-glutamine, and 10% FBS. Cancer cell lines and their respective growth media were obtained from CLS Cell Line Service GmbH (Eppelheim, Germany). Specifically, human skin melanoma SK-MEL-28 and human brain glioma HS683 were cultivated in DMEM with identical supplements as HaCaT cells. The human lung carcinoma cell line A-549 was grown in DMEM/Ham’s F12 (1:1) medium supplemented with 2 mM L-glutamine and 5% FBS. Additionally, human breast adenoma carcinoma MCF-7 cells were sustained in EMEM supplemented with 2 mM L-glutamine, sodium pyruvate, non-essential amino acids (NEAAs), 10 µg/mL insulin human, and 10% FBS. The MTT assay relies on the reduction of the yellow product thiazolyl blue tetrazolium bromide (MTT) to formazan, a purple-blue product, by mitochondrial dehydrogenases in metabolically active cells. The number of living cells after incubation in the presence (or absence, control) of the tested molecules is directly proportional to the blue color, which was measured by spectrophotometry. To perform the assay, cells were initially seeded at a density of 2500 cells/mL in 96-well culture plates (Nunc™ Edge 2.0, Fisher) and allowed to adhere and proliferate over a 24-hour incubation period. Following this, the cells were treated with various concentrations of the tested compounds, which were previously prepared as serial dilutions and dissolved in 0.1% DMSO. These stable solutions guarantee the consistency of experimental conditions over extended periods. Each concentration of the tested compounds underwent triplicate testing (n = 3), and cells were subsequently incubated for 72 h to allow for thorough evaluation. Following this incubation period, MTT reagent (5 mg/mL solution in PBS) was introduced to each well (10% v/v), and cells were further incubated for 4 h. Then, the culture medium was carefully removed, and the resulting blue formazan crystals were dissolved in 100 µL of 100% DMSO. Absorbance readings were taken at 540 nm, referencing a wavelength of 620 nm, using a spectrophotometer. In determining the IC50, the absorbance of serial dilutions of each cell line, treated under identical conditions but without the presence of the tested compounds, was measured.

[1] = system: SK-MEL-28 (melanoma skin cancer); assay: MTT cell proliferation assay, SK-MEL-28; type: cell-based; conditions: Homo sapiens, 72 h incubation, 95% confidence interval in parentheses
Experimental: as §1, with “literature. The selected reference drugs were 5-fluorouracil (5-FU) and etoposide.” for “literature.”
as §2

[2] = system: HaCaT (keratinocyte normal skin); assay: MTT cell proliferation assay, HaCaT; type: cell-based; conditions: Homo sapiens, 72 h incubation, 95% confidence interval in parentheses
Experimental: as §1, with “literature. The selected reference drugs were 5-fluorouracil (5-FU) and etoposide.” for “literature.”
as §2

[3] = system: MCF-7 (breast adenocarcinoma); assay: MTT cell proliferation assay, MCF-7; type: cell-based; conditions: Homo sapiens, MCF7, 72 h incubation, 95% confidence interval in parentheses
Experimental: as §1, with “literature. The selected reference drugs were 5-fluorouracil (5-FU) and etoposide.” for “literature.”
as §2

[4] = design: method as in doi:10.1016/1010-6030(89)87054-6; conditions: DMF; ref [50]; cited from earlier work
[5] = UV-visible absorbance spectroscopy; type: physicochemical; conditions: 0.1 mM
Experimental: Subsequently, the analysis was carried out under two distinct conditions: firstly, in DMF, at a final concentration of 0.1 mM; and secondly, in a mixture PBS:DMF (99:1%), at the same final concentration of 0.1 mM. These two experimental setups provided valuable insights into the spectral characteristics of the compounds in both a pure organic solvent and a solvent system closely resembling physiological conditions. The maxima absorption wavelengths are compiled in Table 3. These bands were attributed to transitions within the benzene and pyrone moieties, considered together as a single chromophore. […] Similarly, 7-MC and S-1 to S-6 compounds also absorb in this UV range (λmax = 328–330 nm). […] In the organic solvent, these values are found to be higher compared to those calculated for 4-MUB and 7-MC. Conversely, in PBS, the extinction coefficients for S-glycosides are lower compared to the parent thiol 7-MC. This highlights the profound impact of glycosylation on absorption properties, as well as the importance of solvent choice.
(§3) Both absorbance and fluorescence spectra were measured on a Tecan […] M PLEX 200 Pro plate reader equipped with monochromator allowing a scan from 230 to 1000 nm. All synthesized molecules were initially dissolved in 10 mM DMF and subsequently diluted in freshly prepared PBS (pH = 7.4) to achieve a final concentration of 0.1 mM. The solutions were then transferred to a Corning (Corning, NY, USA) UV-transparent 96-well plate. Absorbance spectra were recorded from 230 to 800 nm. Emission fluorescence spectra were recorded from 320 to 800 nm, under excitation at 280 nm. Excitation fluorescence spectra were recorded from 230 to 380 nm for an emission at 420 nm. All spectra were recorded with a wavelength step size of 2 nm. Data processing was performed with Excel software 2016. Fluorescence spectra are presented as normalized spectra ranging from 0 to 1. The relative quantum yields were calculated according to Equation (1):(1) ΦT=(AR/AT)×(FT/FR)×[…]×ΦR where Φ is the fluorescence quantum yield, A is the absorbance at the excitation wavelength, F is the area under the corrected emission curve, and n is the refractive index of the solvent for the test compound (T) and the reference (R). The 4-MUB value in DMF was used as the reference. The LOD (resp. LOQ) values were determined as the minimal concentration of product S-3 required to yield a fluorescence that was twice greater than (respectively, 5-times that of) the fluorescence noise on a sample containing PBS, using an excitation wavelength of 280 nm and an emission wavelength of 386 nm (Figure S44).

[6] = Fluorescence excitation/emission spectroscopy and relative quantum yield; type: physicochemical; conditions: 7-MC in presence of 10 mM DTT; for Fluorescence λmax ex: emission at 420 nm; for Fluorescence λmax em: excitation at 280 nm
Experimental: The values determined were close to those observed for the 4-MUB fluorophore.
as §3, with “All synthesized molecules were initially dissolved in 10 mM DMF and subsequently diluted in freshly prepared PBS (pH = 7.4) to achieve a final concentration of 0.1 mM.” left out

[7] = DMF, 7-MC in presence of 10 mM DTT

Structure (SMILES): COc1cc([C@@H]2c3cc4c(cc3[C@@H](O[C@@H]3O[C@@H]5CO[C@@H](C)O[C@H]5[C@H](O)[C@H]3O)[C@H]3COC(=O)[C@H]23)OCO4)cc(OC)c1O [Etoposide, etoposide, reference compound]
- IC50 (A-549 (lung carcinoma)): 1.6 µM
- IC50 (HS683 (brain glioma)): 1.6 µM
- IC50 [1]: 3.2 µM
- IC50 [2]: 0.5 µM
- IC50 [3]: 3.9 µM

Structure (SMILES): O=c1[nH]cc(F)c(=O)[nH]1 [Compound 5-FU, 5-fluorouracil, reference compound]
- IC50 (HS683 (brain glioma)): 37 µM
- IC50 [1]: 6.6 µM
- IC50 [2]: 0.4 µM
- IC50 [3]: 4.8 µM

Structure (SMILES): Cc1cc(=O)oc2cc(O)ccc12 [Compound 4-MUB, 4-methylumbelliferone, reference compound]
- Quantum yield Φ (reference value) [4]: 0.081 ^a
- Absorbance ε (molar absorption coefficient) [5, 7]: 17.0 10^3 M^−1 cm^−1
- Absorbance λmax abs [5, 7]: 322 nm
- emax (molar absorption coefficient) ([5]; PBS 1x (pH = 7.4), 7-MC + DTT 10 mM): 20129,15057 cm-1 M-1
- Absorbance λmax abs ([5]; PBS (PBS:DMF 99:1, pH 7.4), 7-MC in presence of 10 mM DTT): 324 nm
- Fluorescence λmax ex ([6]; DMF, 0.1 mM): 320 nm
- Fluorescence λmax em ([6]; DMF, 0.1 mM): 380 nm
- Fluorescence λmax ex ([6]; PBS pH 7.4, 0.1 mM): 333 nm
- Fluorescence λmax em ([6]; PBS pH 7.4, 0.1 mM): 448 nm
- Relative quantum yield Φ ([6]; PBS, relative to 4-MUB in DMF): 0.293
